Source: patent EP4650351A1, “INHIBITOR OF COMPLEMENT FACTOR B” (Nanjing Chia Tai Tianqing Pharmaceutical Co., Ltd., priority 2023, dated 2024)
Values belong to the molecule of their own block, whether it stands above or below them.

Legend:
[1] = test system: alternative complement pathway in human serum; experiment: Complement deposition assay of serum alternative pathway (Wieslab Complement system Alternative pathway kit); type: biochemical; conditions: human serum diluted 18-fold, 37 °C 60 minutes, absorbance 405 nm
Procedure: The Wieslab® Complement system Alternative pathway kit (WIESLAB® Complement system Alternative pathway AP330 RUO) was used to detect the inhibitory activity of the compounds on the alternative complement pathway in human serum. Human serum was diluted 18-fold with the kit diluent. The diluted serum was added to a 96-well plate at 130 µL/well. Using a compound titrator (Tecan, D300e), test compounds at corresponding concentrations were added. The test concentration of the compounds started at 10 µM, with 3-fold serial dilution for 6 concentration points, detected in single wells. The DMSO ratio was uniformly adjusted to 0.1% using DMSO in all drug-treated wells. In the positive control wells, 0.1% DMSO and 130 µL of diluted serum were added; in the negative control wells, 0.1% DMSO and 130 µL of the kit diluent were added. The mixtures were pre-incubated at room temperature for 15 min. The incubated mixtures were transferred to the 96-well plate provided by the kit at 100 µL per well, incubated at 37 °C for 60 minutes, and the liquid in the wells was discarded. 300 µL of the washing solution in the kit was added to each well. The wells were washed three times. 100 µL of the conjugated antibody Conjugate in the kit was added to each well, and it was incubated at room temperature for 30 minutes. The liquid in the wells was removed. 300 µL of the washing solution in the kit was added to each well and the wells were washed three times. 100 µL of the substrate solution was added to each well and incubated at room temperature for 30 minutes. […] Table 2. Results of complement deposition in serum alternative pathway

[2] = biological target: T1, human complement factor B (Homo sapiens, UniProt P00751); experiment: TR-FRET competitive binding assay of human complement factor B (Cy5-labeled probe); conditions: inhibitory activity against complement factor B; biotin-labeled factor B 25 nM, Cy5 probe 75 nM, 4 °C
T1 construct: purchased ComplementTech A135
T1 sequence (P00751 26-764): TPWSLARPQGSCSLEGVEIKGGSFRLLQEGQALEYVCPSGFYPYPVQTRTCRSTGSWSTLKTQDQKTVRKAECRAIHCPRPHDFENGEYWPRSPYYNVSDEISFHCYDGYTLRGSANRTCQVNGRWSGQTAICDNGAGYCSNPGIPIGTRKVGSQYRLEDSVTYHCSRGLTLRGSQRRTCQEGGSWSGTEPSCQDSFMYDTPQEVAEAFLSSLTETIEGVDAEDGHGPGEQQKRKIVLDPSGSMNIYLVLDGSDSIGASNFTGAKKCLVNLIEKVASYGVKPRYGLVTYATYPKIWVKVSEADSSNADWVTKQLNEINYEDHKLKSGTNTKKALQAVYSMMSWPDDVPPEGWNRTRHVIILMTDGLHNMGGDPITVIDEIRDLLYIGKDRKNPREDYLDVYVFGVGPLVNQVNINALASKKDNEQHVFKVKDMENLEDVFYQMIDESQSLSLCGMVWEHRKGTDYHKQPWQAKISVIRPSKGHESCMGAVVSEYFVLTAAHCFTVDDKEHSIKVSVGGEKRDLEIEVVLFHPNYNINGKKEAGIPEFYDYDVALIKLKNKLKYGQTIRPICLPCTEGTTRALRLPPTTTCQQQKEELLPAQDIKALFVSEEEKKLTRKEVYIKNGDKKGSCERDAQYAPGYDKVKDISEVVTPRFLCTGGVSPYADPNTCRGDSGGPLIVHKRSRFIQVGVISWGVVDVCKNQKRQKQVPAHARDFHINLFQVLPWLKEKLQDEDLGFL

[3] = test system: collagen antibody and lipopolysaccharide-induced arthritis (CAIA); experiment: Collagen antibody-induced mouse arthritis model (Experimental Example 4); type: in vivo, BALB/c mice; conditions: Mean, 20 mg/kg oral twice a day
Procedure: Experimental animals: BALB/c mice, male, 6-8 weeks, 18-20 g; supplier: Beijing Vital River Laboratory Animal Technology Co., Ltd. 1. […] 2. Administration: Table 4. Administration groups and administration schemes [table] The data were analyzed by One-way ANOVA/Dunnett's using Graphpad Prism and by Repeat Measurement ANOVA/Bonferroni using SPSS. P< 0.05 was considered to indicate a significant difference. Arthritis scoring: Starting from the day of modeling, the incidence of arthritis in the limbs of the animals in each group was observed three times a week until the end of the experiment. According to the different degrees of lesions (erythema and swelling), the scoring was carried out according to the standard of 0-4 points. […] Joint swelling: Starting from the day of modeling, the thickness of the left and right foot pads of the animals was measured three times a week using a micrometer (Mitutoyo, 0-25 mm, minimal 0.001 mm) until the end of the experiment.

[4] = Pharmacokinetic study in mice; type: in vivo; conditions: mouse, 10 mg/kg, PO (10 mpk), male ICR (CD-1) mice, plasma
Procedure: Experimental Example 3: Pharmacokinetic study in mice
Purpose of the experiment: To investigate the plasma pharmacokinetics in male ICR (CD-1) mice after single intravenous administration and gavage administration of the compounds of the present disclosure.
Experimental animals: Male ICR (CD-1) mice, body weight 32-35 g; supplier: Vital River Laboratory Animal Technology Co., Ltd.
Experimental procedures: Intravenous Administration (IV); Oral Gavage (PO); the dose was 10 mg/kg (vehicle: water (containing 0.5% methylcellulose (w/v) and 0.5% Tween 80 (v/v)).
Sample collection: At each set time point, 40 µL of blood was collected from the orbital sinus of the experimental animals. Whole blood samples were placed in anticoagulant tubes containing EDTA-K2. The whole blood samples were centrifuged at 1500 g for 10 min to separate plasma. The upper-layer plasma samples were collected into sample tubes for LC-MS/MS analysis.
Data analysis: Plasma concentrations were processed using the non-compartmental model in WinNonlin™Version6.3 (Pharsight, Mountain View, CA) pharmacokinetic software. Pharmacokinetic parameters Cl, T1/2, Cmax, and AUC0-24 were calculated using the linear-log trapezoidal method, and the results were shown in the table below. Table 3. Results of the pharmacokinetic study

[5] = test system: collagen antibody and lipopolysaccharide-induced arthritis (CAIA); experiment: Pharmacodynamic study in the mouse CAIA model (Experimental Example 5); type: in vivo, BALB/c mice; conditions: Mean; 20mg/kg bid oral, Day0-Day14; larger AUC = greater severity
Procedure: Experimental Animals: BALB/c mice, male, 6-8 weeks, 18-20 g; Supplier: Shanghai Jihui Laboratory Animal Care Co., Ltd 1. Induction of the mouse CAIA model: On Day 0, all mice were intravenously injected via the tail vein with 0.15 mL of Arthrogen-CIA 5-clone mixed type II collagen antibody (10 mg/mL, Chondrex). […] 2. Administration: Table 7. Administration groups and administration schemes [table] The experimental data are expressed as mean±standard error (mean ± S.E.M.). The data were analyzed by One-way ANOVA/Dunnett's using Graphpad Prism and by Repeat Measurement ANOVA/Bonferroni using SPSS. P< 0.05 was considered to indicate a significant difference. Arthritis scoring: Starting from the day of modeling, the incidence of arthritis in the limbs of the animals in each group was observed three times a week until the end of the experiment. According to the different degrees of lesions (erythema and swelling), the scoring was carried out according to the standard of 0-4 points. […] The larger the AUC, the greater the severity of arthritis was. […] Arthritis score AUC

IC50 [1]: 54.1 nM | IC50 [2]: 6 nM | Cmax [4]: 1290 ng/mL | AUC(0-t) ([4]; read-out: AUC0-24): 9680 ng·h/mL
SMILES: COc1cc(C)c2[nH]ccc2c1O[C@@H]1CCN(CC(F)F)C[C@H]1c1ccc(C(=O)O)cc1 [Example 13a-2, 4-((3R,4R)-1-(2,2-difluoroethyl)-4-((5-methoxy-7-methyl-1H-indol-4-yl)oxy)piperidin-3-yl)benzoic acid]
Arthritis score ([3]; Day0): 0.00 | Thickness of foot pads (mm) ([3]; Day0): 1.60 mm | Arthritis score ([3]; Day3): 0.00 | Thickness of foot pads (mm) ([3]; Day3): 1.607 mm | Arthritis score ([3]; Day5): 1.17 | Thickness of foot pads (mm) ([3]; Day5): 1.632 mm | Arthritis score ([3]; Day7): 1.83 | Thickness of foot pads (mm) ([3]; Day7): 1.665 mm | Arthritis score ([3]; Day10): 1.50 | Thickness of foot pads (mm) ([3]; Day10): 1.666 mm | Arthritis score ([3]; Day12): 1.33 | Thickness of foot pads (mm) ([3]; Day12): 1.661 mm | Arthritis score ([3]; Day14): 1.50 | Thickness of foot pads (mm) ([3]; Day14): 1.669 mm

IC50 [1]: 59.3 nM | IC50 [2]: 10.2 nM | Cmax [4]: 1370 ng/mL | AUC(0-t) ([4]; read-out: AUC0-24): 6690 ng·h/mL
SMILES: COc1cc(C)c2[nH]ccc2c1O[C@@H]1CCN(CC(F)(F)F)C[C@H]1c1ccc(C(=O)O)cc1 [Example 14a-2, 4-((3R,4R)-4-((5-methoxy-7-methyl-1H-indol-4-yl)oxy)-1-(2,2,2-trifluoroethyl)piperidin-3-yl)benzoic acid]
Arthritis score AUC [5]: 3.00

IC50 [1]: […] | IC50 [2]: 12.4 nM | Cmax ([4]; in vivo): 601 ng/mL | AUC(0-t) at 24 h ([4]; in vivo, read-out: AUC0-24): 5750 ng·h/mL
SMILES: COc1cc(C)c2[nH]ccc2c1SC1CCN(CC(F)F)CC1c1ccc(C(=O)O)cc1 (single isomer, unassigned) [Example 16-2]
Arthritis score AUC [5]: 7.25
